Measurements as given in patent publication US10077243B2, “Compounds for treating disorders mediated by metabotropic glutamate receptor 5, and methods of use thereof” (Sunovion Pharmaceuticals Inc., priority 2009, dated 2018).

Biological target: T1, human mGluR5 (Homo sapiens, UniProt P41594)
T1 construct: expressed in transfected cells; host or cells: HEK293 cells stably expressing rat GLAST (EAAT1), stably transfected with pcDNAzeo3.1 carrying synthetic human mGluR5 DNA; zeocin-selected single clones
Test: In vitro cell-based FLIPR calcium assay for positive modulation of the activation of mGluR5 by glutamate (PAM EC50)
Conditions: HEK293/GLAST cells expressing recombinant human mGluR5; FLIPR calcium signal; glutamate added at its EC20; read-out: mGluR5 PAM EC50
Summary of the method: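 HEK293/GLAST cells stably expressing mGluR5 were loaded with calcium-sensitive dye (25 °C, 45–60 min) in HBSS/20 mM HEPES. Test compounds were assayed in buffer containing glutamate at that day's EC20, with FLIPR fluorescence recorded. Controls contained 0.3% DMSO without compound.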

T1 sequence (P41594 21-1212): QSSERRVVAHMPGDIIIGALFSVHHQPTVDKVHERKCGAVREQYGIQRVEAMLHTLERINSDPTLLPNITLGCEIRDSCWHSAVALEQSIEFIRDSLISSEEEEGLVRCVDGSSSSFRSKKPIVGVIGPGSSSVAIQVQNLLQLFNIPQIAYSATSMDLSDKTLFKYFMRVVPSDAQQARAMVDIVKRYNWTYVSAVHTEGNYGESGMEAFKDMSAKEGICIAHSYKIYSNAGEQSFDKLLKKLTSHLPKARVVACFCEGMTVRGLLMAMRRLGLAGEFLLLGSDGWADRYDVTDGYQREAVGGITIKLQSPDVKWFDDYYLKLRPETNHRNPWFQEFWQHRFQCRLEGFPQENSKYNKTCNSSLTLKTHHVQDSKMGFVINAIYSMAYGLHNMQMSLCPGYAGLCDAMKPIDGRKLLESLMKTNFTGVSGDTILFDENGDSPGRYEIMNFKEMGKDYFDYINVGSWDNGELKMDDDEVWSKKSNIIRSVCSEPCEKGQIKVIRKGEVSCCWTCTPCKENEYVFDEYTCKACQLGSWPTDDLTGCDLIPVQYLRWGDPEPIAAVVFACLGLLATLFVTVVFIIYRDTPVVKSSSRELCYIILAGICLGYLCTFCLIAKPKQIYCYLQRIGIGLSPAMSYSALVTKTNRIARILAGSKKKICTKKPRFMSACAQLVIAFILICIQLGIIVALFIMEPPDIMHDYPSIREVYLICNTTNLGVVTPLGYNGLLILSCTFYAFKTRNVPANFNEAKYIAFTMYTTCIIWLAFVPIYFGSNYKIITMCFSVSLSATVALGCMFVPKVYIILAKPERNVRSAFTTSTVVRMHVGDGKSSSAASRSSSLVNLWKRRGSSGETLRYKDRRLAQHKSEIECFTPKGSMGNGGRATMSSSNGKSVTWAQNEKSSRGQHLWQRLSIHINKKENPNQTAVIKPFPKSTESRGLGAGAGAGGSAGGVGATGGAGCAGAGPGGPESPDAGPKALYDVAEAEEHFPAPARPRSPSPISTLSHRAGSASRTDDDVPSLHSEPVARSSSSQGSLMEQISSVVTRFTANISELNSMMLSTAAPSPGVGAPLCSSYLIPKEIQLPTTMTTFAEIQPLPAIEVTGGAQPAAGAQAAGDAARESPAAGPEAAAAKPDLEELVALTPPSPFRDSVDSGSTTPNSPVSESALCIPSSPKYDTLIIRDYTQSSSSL

| Compound | EC50 [nM] |
| --- | --- |
| CC1CCc2nc3cc(C#Cc4ccccn4)ccc3c(=O)n21 (stereo not drawn) [Example 3.14, 1-methyl-6-(pyridin-2-ylethynyl)-2,3-dihydropyrrolo[2,1-b]quinazolin-9(1H)-one] | 100 to 300 |
| CC1CN(C)Cc2nc3cc(C#Cc4ccccn4)ccc3c(=O)n21 (stereo not drawn) [Example 5.15, 2,4-dimethyl-9-(pyridin-2-ylethynyl)-3,4-dihydro-1H-pyrazino[2,1-b]quinazolin-6(2H)-one] | 30 to 100 |
| O=C1CCc2nc3cc(C#Cc4cccc(F)c4)ccc3c(=O)n2C1 [Example 4.22, 3-((3-fluorophenyl)ethynyl)-6H-pyrido[2,1-b]quinazoline-8,11(7H,9H)-dione] | 30 to 100 |
| O=c1c2ccc(C#Cc3cccc(F)c3)cc2nc2n1CC(Cc1ccccc1)C2 (stereo not drawn) [Example 3.10] | < 10 |
| CC(c1nc2cc(C#Cc3ccccn3)ccc2c(=O)n1C)N(C)C1CCC1 (stereo not drawn) [Example 2.23, 2-(1-(cyclobutyl(methyl)amino)ethyl)-3-methyl-7-(pyridin-2-ylethynyl)quinazolin-4(3H)-one] | 300 to 1000 |
| CN1Cc2nc3cc(C#Cc4ccccn4)ccc3c(=O)n2CC1(C)C [Example 5.18, 2,3,3-trimethyl-9-(pyridin-2-ylethynyl)-3,4-dihydro-1H-pyrazino[2,1-b]quinazolin-6(2H)-one] | 300 to 1000 |
| CCCn1cnc2cc(C#Cc3cccc(F)c3)ccc2c1=O [Example 1.7, 7-((3-fluorophenyl)ethynyl)-3-propylquinazolin-4(3H)-one] | 10 to 30 |
| O=c1c2ccc(C#Cc3cccc(F)c3)cc2nc2n1CCC=C2 [Example 4.20, 3-((3-fluorophenyl)ethynyl)-8H-pyrido[2,1-b]quinazolin-11(9H)-one] | 10 to 30 |
| CC1Cc2nc3cc(C#Cc4ccccn4)ccc3c(=O)n2C1 (stereo not drawn) [Example 3.11, 2-methyl-6-(pyridin-2-ylethynyl)-2,3-dihydropyrrolo[2,1-b]quinazolin-9(1H)-one] | 10 to 30 |
| O=c1c2ccc(C#Cc3ccccn3)cc2nc2n1C[C@@H]1CCCN1C2 [Example 5.23, (S)-8-(pyridin-2-ylethynyl)-2,3,13,13a-tetrahydro-1H-pyrrolo[1′,2′:4,5]pyrazino[2,1-b]quinazolin-11(5H)-one] | 30 to 100 |
| CC1Cc2nc3cc(C#Cc4cccc(F)c4)ccc3c(=O)n2C1 (stereo not drawn) [Example 3.8] | < 10 |
| CC1(C)Cc2nc3cc(C#Cc4ccccn4)ccc3c(=O)n2C1 [Example 3.20, 2,2-dimethyl-6-(pyridin-2-ylethynyl)-2,3-dihydropyrrolo[2,1-b]quinazolin-9(1H)-one] | < 10 |
| COCCc1nc2cc(C#Cc3cccc(F)c3)ccc2c(=O)[nH]1 [Example 2.13, 7-((3-fluorophenyl)ethynyl)-2-(2-methoxyethyl)quinazolin-4(3H)-one] | 100 to 300 |
| COCC1CCc2nc3cc(C#Cc4ccccn4)ccc3c(=O)n21 (stereo not drawn) [Example 3.7, 1-(methoxymethyl)-6-(pyridin-2-ylethynyl)-2,3-dihydropyrrolo[2,1-b]quinazolin-9(1H)-one] | 30 to 100 |
| CN1CCCC1Cn1cnc2cc(C#Cc3cccc(F)c3)ccc2c1=O (stereo not drawn) [Example 1.21, 7-((3-fluorophenyl)ethynyl)-3-((1-methylpyrrolidin-2-yl)methyl)quinazolin-4(3H)-one] | 100 to 300 |
| COCCn1cnc2cc(C#Cc3ccc(F)cc3)ccc2c1=O [Example 1.12, 7-((4-fluorophenyl)ethynyl)-3-(2-methoxyethyl)quinazolin-4(3H)-one] | 30 to 100 |
| COCC1CCc2nc3cc(C#Cc4ccccn4)ccc3c(=O)n2C1 (single isomer, unassigned) [4.34a/4.34b slower moving enantiomer (fraction 2), 8-(methoxymethyl)-3-(pyridin-2-ylethynyl)-8,9-dihydro-6H-pyrido[2,1-b]quinazolin-11(7H)-one] | 30 to 100 |
| CN1CCCC1c1nc2cc(C#Cc3cccc(F)c3)ccc2c(=O)n1C (stereo not drawn) [Example 2.4, 7-((3-fluorophenyl)ethynyl)-3-methyl-2-(1-methylpyrrolidin-2-yl)quinazolin-4(3H)-one] | 100 to 300 |
| O=c1c2ccc(C#Cc3ccccn3)cc2nc2n1CC(O)CC2 (stereo not drawn) [Example 4.24, 8-hydroxy-3-(pyridin-2-ylethynyl)-8,9-dihydro-6H-pyrido[2,1-b]quinazolin-11(7H)-one] | 300 to 1000 |
| O=c1c2ccc(C#Cc3cccc(F)c3)cc2nc2n1CC(O)CC2 (stereo not drawn) [Example 4.23, 3-((3-fluorophenyl)ethynyl)-8-hydroxy-8,9-dihydro-6H-pyrido[2,1-b]quinazolin-11(7H)-one] | 30 to 100 |
| CC1CCc2nc3cc(C#Cc4ccccn4)ccn3c(=O)c2CC1 (stereo not drawn) [Example 16.6, 8-methyl-3-(pyridin-2-ylethynyl)-7,8,9,10-tetrahydrocyclohepta[d]pyrido[1,2-a]pyrimidin-11(6H)-one] | < 10 |

Other lines, results leading:

| EC50 [nM] | Compound |
| --- | --- |
| 300 to 1000 | O=c1c2ccc(C#Cc3nccs3)cc2nc2n1CCC1(CC2)OCCO1 [Example 7.60] |
| 300 to 1000 | O=C(Nc1ccc(F)cc1)c1ccc2c(c1)N=C1CCCCCCN1C2 [Example 26.1, N-(4-fluorophenyl)-7,8,9,10,11,13-hexahydro-6H-azocino[2,1-b]quinazoline-3-carboxamide] |
| 10 to 30 | C=CCN1CCc2nc3cc(C#Cc4cccc(F)c4)ccc3c(=O)n2CC1 [Example 8.12, 3-allyl-8-((3-fluorophenyl)ethynyl)-2,3,4,5-tetrahydro-[1,4]diazepino[7,1-b]quinazolin-11(1H)-one] |
| 30 to 100 | CC1(C)CCn2c(nc3nc(C#Cc4ccccn4)ccc3c2=O)C1 [Example 12.2, 9,9-dimethyl-2-(pyridin-2-ylethynyl)-7,8,9,10-tetrahydro-5H-dipyrido[1,2-a:2′,3′-d]pyrimidin-5-one] |
| < 10 | CC1CCc2nc3cc(C#Cc4ccc(F)cc4)ccc3c(=O)n2CC1 (stereo not drawn) [Example 6.6, 3-((4-fluorophenyl)ethynyl)-8-methyl-7,8,9,10-tetrahydroazepino[2,1-b]quinazolin-12(6H)-one] |
| 100 to 300 | O=C(Cc1ccccc1)c1ccc2c(=O)n3c(nc2c1)CCCCC3 [Example 21.3, 3-(2-phenylacetyl)-7,8,9,10-tetrahydroazepino[2,1-b]quinazolin-12(6H)-one] |
| 30 to 100 | O=c1c2ccc(C#Cc3ccc(F)nc3)cc2nc2n1CCC1(CC2)OCCO1 [Example 7.15] |
| < 10 | CC1CCCCc2nc3cc(C#Cc4ccccn4)ccc3c(=O)n21 (stereo not drawn) [Example 6.44, 10-methyl-3-(pyridin-2-ylethynyl)-7,8,9,10-tetrahydroazepino[2,1-b]quinazolin-12(6H)-one] |
| 300 to 1000 | O=c1c2ccc(C#Cc3cscn3)cc2nc2n1CCC1(CC2)OCCO1 [Example 7.62] |
| 10 to 30 | O=c1c2ccc(C#Cc3ccncc3)cc2nc2n1CCC1(CC2)OCCO1 [Example 7.12] |
| 100 to 300 | O=c1c2ccc(C#Cc3cccc(F)c3)cc2nc2n1CCNCC2 [Example 8.6, 8-((3-fluorophenyl)ethynyl)-2,3,4,5-tetrahydro-[1,4]diazepino[7,1-b]quinazolin-11(1H)-one] |
| 300 to 1000 | O=c1c2ccc(C#CC3CCCC3)cc2nc2n1CCC1(CC2)OCCO1 [Example 7.52] |
| < 10 | CC1CCCc2nc3cc(C#Cc4ccccn4)ccc3c(=O)n2C1 (stereo not drawn) [Example 6.42, 9-methyl-3-(pyridin-2-ylethynyl)-7,8,9,10-tetrahydroazepino[2,1-b]quinazolin-12(6H)-one] |
| 30 to 100 | O=c1c2ccc(/C=C/c3ccccn3)cc2nc2n1CCCCC2 [Example 20.10, (E)-3-(2-(pyridin-2-yl)vinyl)-7,8,9,10-tetrahydroazepino[2,1-b]quinazolin-12(6H)-one] |
| < 10 | O=c1c2ccc(C#Cc3ccccn3)cc2nc2n1CCC(F)CC2 (stereo not drawn) [Example 6.46, 8-fluoro-3-(pyridin-2-ylethynyl)-7,8,9,10-tetrahydroazepino[2,1-b]quinazolin-12(6H)-one] |
| < 10 | O=c1c2ccc(C#Cc3ccccn3)cc2nc2n1CCC1(CC2)CC1 [Example 6.51, 3-(pyridin-2-ylethynyl)-9,10-dihydro-6H-spiro[azepino[2,1-b]quinazoline-8,1′-cyclopropan]-12(7H)-one] |
| 100 to 300 | O=c1c2ccc(C#Cc3ccccn3)cc2nc2n1CC1CCCCN1CC2 (stereo not drawn) [Example 9.2, 3-(pyridin-2-ylethynyl)-9,10,11,12,12a,13-hexahydro-6H-pyrido[2′,1′:3,4][1,4]diazepino[7,1-b]quinazolin-15(7H)-one] |
| < 10 | CC1CCc2nc3cc(C#Cc4cccc(F)c4)ccc3c(=O)n2CC1 (stereo not drawn) [Example 6.7, 3-((3-fluorophenyl)ethynyl)-8-methyl-7,8,9,10-tetrahydroazepino[2,1-b]quinazolin-12(6H)-one] |
| 100 to 300 | Cc1cccc(C#Cc2ccc3c(=O)n4c(nc3c2)CCC2(CC4)OCCO2)n1 [Example 7.46] |
| < 10 | O=c1c2ncc(C#Cc3cccc(F)c3)cc2nc2n1CCCCC2 [Example 11.7, 3-((3-fluorophenyl)ethynyl)-7,8,9,10-tetrahydropyrido[3′,2′:4,5]pyrimido[1,2-a]azepin-12(6H)-one] |
| 100 to 300 | O=c1c2ccc(C#Cc3ccccn3)cc2nc2n1CCN1CCCC1C2 (stereo not drawn) [Example 9.5, 11-(pyridin-2-ylethynyl)-2,3,5,6,14,14a-hexahydropyrrolo[1′,2′:4,5][1,4]diazepino[7,1-b]quinazolin-8(1H)-one] |
| 100 to 300 | O=c1c2ccc(C#Cc3cccnc3)cc2nc2n1CCC(O)CC2 (stereo not drawn) [Example 6.17, 8-hydroxy-3-(pyridin-3-ylethynyl)-7,8,9,10-tetrahydroazepino[2,1-b]quinazolin-12(6H)-one] |
| 30 to 100 | O=c1c2ccc(C#Cc3ccccn3)cc2nc2n1CCC1(CCCO1)CC2 (stereo not drawn) [Example 6.27, 3-(pyridin-2-ylethynyl)-4′,5′,9,10-tetrahydro-3′H,6H-spiro[azepino[2,1-b]quinazoline-8,2′-furan]-12(7H)-one] |
| 100 to 300 | O=c1c2ccc(C#Cc3ccncc3F)cc2nc2n1CCC1(CC2)OCCO1 [Example 7.16] |
